Assays:
[1] = test system: αTC1-6 glucagonoma cells; assay: αTC1-6 cell proliferation (CellTiter 96 Aqueous), WT and Slc38a5 KD; assay type: cell-based; conditions: 4 mM in culture medium, 5 days; for cell proliferation, Slc38a5 knock-down αTC1-6 cells: compared with wildtype cells
Excerpt: Slc38a5 KO αTC1 clones were generated using CRISPR-Cas9 techniques. Target sequences (sgRNAs) were designed using an online sgRNA design tool from DNA2.0 (DNA2.0). The sgRNAs were cloned into the pSpCas9-2A-GFP-Puro vector using BsmBl (NEB) and αTC1 cells were transfected with Lipofectamine 2000 according to the manufacturers' instructions (Life Technologies). Clones with deletion mutations were verified by PCR amplifications, TaqMan analysis and RNA sequencing. […] Both WT and Slc38a5 KD αTC1/6 cells were prepared in an assay medium (MEM from Gibco), supplemented with 5% fetal bovine serum (FBS), 10 mM HEPES, and 100 IU/ml penicillin and 100 μg/ml streptomycin) and seeded on 96-well plates at a density of ˜15,000 cells per well in 4-6 replicates. Selected amino acids were added to the final concentration of 4 mM. Cell proliferations were measured every day using the CellTiter 96 Aqueous Cell Proliferation Assay (Promega) according to the manufacturer's instructions. Briefly, 20 μl of assay reagent was added to each well and the cell plates were incubated in a tissue culture incubator for 2.5 hours. Absorbance was measured at 490 nm on a plate reader SpectraMax Plus (Molecular Devices). Values were corrected for background absorbance using the averages of the wells containing assay medium only and plotted in Prism (GraphPad).

[2] = test system: C57BL/6 mice; assay: GCGR antibody with or without rapamycin in C57BL/6 mice: blood chemistry, islet cell mass; conditions: GCGR-antibody and rapamycin-treated mice
Method: C57BL/6 mice (males, 10 weeks of age, Taconic) were housed (5 mice per cage) in a controlled environment (12-h light/dark cycle, 22±1° C., 60-70% humidity) and fed ad libitum with standard chow (Purina Laboratory Rodent Diet 5001, LabDiet). Mice were assigned to study groups (n=10) based on baseline blood glucose levels. Mice were injected subcutaneously (sc) with GCGR antibody (3 mg/kg) or the control antibody (3 mg/kg) alone or in combination with rapamycin (10 mg/kg) or the vehicle. For the duration of the study, GCGR or control antibody was administered once weekly, whereas rapamycin or the vehicle was administered daily. Blood was collected from the tail for glucose measurements without fasting. Plasma samples were collected via submandibular bleeds at baseline and on day 21 after dosing for analysis of hormones and total amino acid levels. Seven days after the last antibody administration (day 21), mice were sacrificed, organs weighed and pancreata collected.
Pancreas α- and β-cell mass was measured as described elsewhere (Okamato et al., 2015, Endocrinology 156:2781-2794). α- and PP cell mass were determined using anti-somatostatin antibody (Sigma-Aldrich; #SAB4502861) and anti-pancreatic polypeptide antibody (Sigma-Aldrich; #SAB2500747). For quantifying Slc38a5 positive α-cells, pancreas sections were stained with human anti-glucagon and rabbit anti-Slc38a5 (Abcam; #ab72717) primary antibodies, and Alexa Fluor 488 labeled donkey anti-rabbit (Jackson ImmunoResearch; #711-545-152) and Alexa Fluor 594 donkey anti-human (Jackson ImmunoResearch; #709-585-149) secondary antibodies. For quantifying proliferating cells, Alexa Fluor 647 labeled anti-Ki67 (Abcam; #ab194724) was used in combination with anti-glucagon and anti-Slc38a5 antibodies. Slides were scanned using a Zeiss Axio Scan.Z1 slide scanner (Zeiss) and the images were analyzed using the Halo (Indica Labs).
Blood glucose was determined using ACCU-CHEK® Compact Plus (Roche Diagnostics). Plasma glucagon and insulin levels were determined using glucagon and mouse insulin ELISA (Mercodia). Plasma total amino acid levels were measured using L-Amino Acid Quantification Kit (Sigma-Aldrich).

Row | Structure (SMILES) | rate of cell proliferation, wildtype αTC1-6 cells [1] | cell proliferation, Slc38a5 knock-down αTC1-6 cells [1] | muscle mass [2]
1 | C[C@H](N)C(=O)O [alanine] | significantly increased | to a much lesser extent | –
2 | NC(=O)CC[C@H](N)C(=O)O [glutamine] | significantly increased | to a much lesser extent | –
3 | CO[C@H]1C[C@@H]2CC[C@@H](C)[C@@](O)(O2)C(=O)C(=O)N2CCCC[C@H]2C(=O)O[C@H]([C@H](C)C[C@@H]2CC[C@@H](O)[C@H](OC)C2)CC(=O)[C@H](C)/C=C(\C)[C@@H](O)[C@@H](OC)C(=O)[C@H](C)C[C@H](C)/C=C/C=C/C=C/1C [rapamycin, reference compound] | – | – | small reduction

Source: patent US20190248888A1, “METHODS OF LOWERING BLOOD GLUCOSE LEVELS” (Regeneron Pharmaceuticals, Inc., priority 2016, published 2019)
